Assays:
lipoamide = compound: NC(=O)CCCCC1CCSS1 [lipoamide]; experiment: thermal stability z-score vs DMSO; higher = more thermally stabilized by treatment; conditions: HeLa, lipoamide concentration 100 µM
Method: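 Cellular thermal proteome profiling in HeLa cells. Cells were treated with 100 µM lipoamide for 1 h, with or without 1 mM arsenate for a further 1 h, then heated to ten temperatures (37-66.3 °C), and soluble protein was quantified by TMT mass spectrometry relative to 0.1% DMSO controls. The thermal stability score (sum of log2 fold changes minus the abundance score) was transformed to a z-score; mean of n = 3 experiments.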

potassium arsenate = compound: O=[As]([O-])(O)O.[K+] [potassium arsenate]; experiment: as above; conditions: HeLa; arsenate concentration 1 mM
Method: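 Cellular thermal proteome profiling in HeLa cells treated with 1 mM arsenate for 1 h (DMSO pretreatment), heated to ten temperatures (37-66.3 °C). Soluble protein was quantified by TMT mass spectrometry relative to DMSO controls; the thermal stability score was transformed to a z-score; mean of n = 3 experiments.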

[1] = arsenate co-treatment: 1 mM arsenate 1 h
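Also: each temperature applied for 3 min, abundance score taken as mean log2 fold change at the two lowest temperatures, z-score obtained by mean subtraction and division by SD.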

UniProt Q9NYB0, sequence (Q9NYB0 whole entry): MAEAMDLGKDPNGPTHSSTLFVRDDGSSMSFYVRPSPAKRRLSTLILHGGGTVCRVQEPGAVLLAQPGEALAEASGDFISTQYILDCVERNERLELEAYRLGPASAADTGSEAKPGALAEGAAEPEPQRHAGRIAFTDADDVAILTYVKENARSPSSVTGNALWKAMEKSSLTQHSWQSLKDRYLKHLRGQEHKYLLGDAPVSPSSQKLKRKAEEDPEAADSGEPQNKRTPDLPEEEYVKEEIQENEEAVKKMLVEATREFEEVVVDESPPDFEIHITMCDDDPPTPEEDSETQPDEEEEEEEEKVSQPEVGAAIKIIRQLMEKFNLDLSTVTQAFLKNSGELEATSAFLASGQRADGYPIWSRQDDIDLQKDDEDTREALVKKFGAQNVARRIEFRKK
UniProt P48556, sequence (P48556 whole entry): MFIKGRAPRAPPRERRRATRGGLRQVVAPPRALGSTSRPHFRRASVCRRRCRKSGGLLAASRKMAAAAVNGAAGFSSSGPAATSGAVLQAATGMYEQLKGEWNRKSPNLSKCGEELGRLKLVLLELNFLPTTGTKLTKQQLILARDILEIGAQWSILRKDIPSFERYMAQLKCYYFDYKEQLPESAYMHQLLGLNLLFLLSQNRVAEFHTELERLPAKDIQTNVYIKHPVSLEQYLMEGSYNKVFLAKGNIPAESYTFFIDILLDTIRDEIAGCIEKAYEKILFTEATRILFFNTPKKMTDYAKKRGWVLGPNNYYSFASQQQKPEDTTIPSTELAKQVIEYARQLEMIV
UniProt Q9H0J9, sequence (Q9H0J9 whole entry): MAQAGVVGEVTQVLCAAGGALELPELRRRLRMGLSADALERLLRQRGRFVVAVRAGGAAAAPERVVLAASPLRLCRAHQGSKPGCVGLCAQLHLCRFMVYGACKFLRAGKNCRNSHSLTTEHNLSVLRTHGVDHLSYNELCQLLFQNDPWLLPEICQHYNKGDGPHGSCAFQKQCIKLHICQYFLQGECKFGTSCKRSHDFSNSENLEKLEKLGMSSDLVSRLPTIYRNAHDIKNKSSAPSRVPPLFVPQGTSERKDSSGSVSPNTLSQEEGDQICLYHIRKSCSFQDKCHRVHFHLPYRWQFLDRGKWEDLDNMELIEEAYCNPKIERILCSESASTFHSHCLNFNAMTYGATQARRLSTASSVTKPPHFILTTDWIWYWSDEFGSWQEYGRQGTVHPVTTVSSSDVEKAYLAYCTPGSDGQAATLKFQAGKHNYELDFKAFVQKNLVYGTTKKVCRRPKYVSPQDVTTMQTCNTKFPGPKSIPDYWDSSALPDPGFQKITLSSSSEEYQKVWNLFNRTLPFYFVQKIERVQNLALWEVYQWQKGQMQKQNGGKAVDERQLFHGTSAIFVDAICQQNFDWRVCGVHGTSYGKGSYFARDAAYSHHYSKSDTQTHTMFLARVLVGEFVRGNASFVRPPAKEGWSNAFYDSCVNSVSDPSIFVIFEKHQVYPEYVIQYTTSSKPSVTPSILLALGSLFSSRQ
UniProt Q15785, sequence (Q15785 whole entry): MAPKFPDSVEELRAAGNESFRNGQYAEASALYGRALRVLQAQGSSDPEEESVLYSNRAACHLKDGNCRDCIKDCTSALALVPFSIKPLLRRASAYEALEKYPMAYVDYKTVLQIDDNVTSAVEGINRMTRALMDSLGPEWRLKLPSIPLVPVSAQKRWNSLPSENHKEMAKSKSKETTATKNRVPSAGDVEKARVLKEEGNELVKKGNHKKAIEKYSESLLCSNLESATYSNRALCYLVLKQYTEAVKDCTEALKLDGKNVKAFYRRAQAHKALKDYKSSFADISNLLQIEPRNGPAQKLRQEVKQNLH
UniProt Q9H082, sequence (Q9H082 whole entry): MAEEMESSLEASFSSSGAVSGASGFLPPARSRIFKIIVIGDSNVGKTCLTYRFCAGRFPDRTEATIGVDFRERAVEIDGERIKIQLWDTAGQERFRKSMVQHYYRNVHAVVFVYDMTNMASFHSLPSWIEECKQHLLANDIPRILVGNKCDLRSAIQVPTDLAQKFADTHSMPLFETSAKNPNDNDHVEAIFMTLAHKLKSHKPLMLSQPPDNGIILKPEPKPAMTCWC
UniProt Q32NC0, sequence (Q32NC0 whole entry): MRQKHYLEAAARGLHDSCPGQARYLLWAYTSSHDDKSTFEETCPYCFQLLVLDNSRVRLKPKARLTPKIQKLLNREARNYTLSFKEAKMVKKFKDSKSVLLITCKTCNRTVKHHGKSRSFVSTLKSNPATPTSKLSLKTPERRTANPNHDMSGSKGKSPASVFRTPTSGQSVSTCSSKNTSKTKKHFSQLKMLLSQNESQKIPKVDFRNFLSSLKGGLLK
UniProt P55789, sequence (P55789 whole entry, looked up): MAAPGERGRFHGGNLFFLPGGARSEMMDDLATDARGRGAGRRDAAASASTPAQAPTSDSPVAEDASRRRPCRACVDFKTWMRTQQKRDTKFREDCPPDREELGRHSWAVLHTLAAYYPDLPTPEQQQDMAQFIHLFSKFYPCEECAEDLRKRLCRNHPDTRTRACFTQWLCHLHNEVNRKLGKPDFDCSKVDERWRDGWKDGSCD
UniProt P23919, sequence (P23919 whole entry): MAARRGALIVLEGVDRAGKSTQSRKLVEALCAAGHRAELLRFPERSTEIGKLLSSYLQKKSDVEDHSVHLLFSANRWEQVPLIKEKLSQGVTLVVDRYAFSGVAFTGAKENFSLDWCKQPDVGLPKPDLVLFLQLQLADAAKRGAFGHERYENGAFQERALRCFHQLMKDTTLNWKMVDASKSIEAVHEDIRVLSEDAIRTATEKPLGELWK
UniProt Q96PD2, sequence (Q96PD2 whole entry): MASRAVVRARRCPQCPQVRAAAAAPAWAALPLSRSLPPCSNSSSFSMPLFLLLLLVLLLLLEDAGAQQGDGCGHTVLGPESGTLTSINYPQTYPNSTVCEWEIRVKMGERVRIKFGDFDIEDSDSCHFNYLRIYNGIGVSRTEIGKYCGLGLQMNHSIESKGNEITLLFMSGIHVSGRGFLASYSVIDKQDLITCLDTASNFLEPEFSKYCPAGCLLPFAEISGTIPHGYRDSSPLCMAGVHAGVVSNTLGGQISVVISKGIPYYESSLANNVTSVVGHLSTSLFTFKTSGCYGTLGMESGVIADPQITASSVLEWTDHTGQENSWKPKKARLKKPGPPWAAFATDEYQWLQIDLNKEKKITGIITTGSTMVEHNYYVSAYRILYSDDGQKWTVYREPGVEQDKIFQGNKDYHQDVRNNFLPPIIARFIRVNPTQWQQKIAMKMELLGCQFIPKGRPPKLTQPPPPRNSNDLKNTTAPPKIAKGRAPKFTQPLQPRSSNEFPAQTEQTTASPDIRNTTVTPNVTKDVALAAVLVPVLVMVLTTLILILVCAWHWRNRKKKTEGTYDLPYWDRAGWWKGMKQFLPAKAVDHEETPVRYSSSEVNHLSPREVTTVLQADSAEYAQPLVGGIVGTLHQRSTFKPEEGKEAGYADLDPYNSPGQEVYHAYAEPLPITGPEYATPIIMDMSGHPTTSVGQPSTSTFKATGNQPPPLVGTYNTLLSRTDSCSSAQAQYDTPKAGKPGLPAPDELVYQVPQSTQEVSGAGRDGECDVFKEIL
UniProt Q13557, sequence (Q13557 whole entry): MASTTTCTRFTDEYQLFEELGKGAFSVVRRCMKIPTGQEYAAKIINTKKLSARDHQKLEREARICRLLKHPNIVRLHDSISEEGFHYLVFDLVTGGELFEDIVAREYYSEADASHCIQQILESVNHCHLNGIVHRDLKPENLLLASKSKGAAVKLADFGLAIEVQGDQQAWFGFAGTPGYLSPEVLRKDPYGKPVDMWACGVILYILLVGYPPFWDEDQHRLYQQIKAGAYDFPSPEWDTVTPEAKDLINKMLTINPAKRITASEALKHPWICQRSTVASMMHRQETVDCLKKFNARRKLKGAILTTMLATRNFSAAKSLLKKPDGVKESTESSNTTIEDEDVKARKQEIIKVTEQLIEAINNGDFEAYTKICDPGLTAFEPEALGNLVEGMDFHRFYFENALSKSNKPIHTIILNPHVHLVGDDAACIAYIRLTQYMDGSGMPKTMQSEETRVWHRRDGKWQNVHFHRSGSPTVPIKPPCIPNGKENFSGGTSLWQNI
UniProt Q9Y3X0, sequence (Q9Y3X0 whole entry): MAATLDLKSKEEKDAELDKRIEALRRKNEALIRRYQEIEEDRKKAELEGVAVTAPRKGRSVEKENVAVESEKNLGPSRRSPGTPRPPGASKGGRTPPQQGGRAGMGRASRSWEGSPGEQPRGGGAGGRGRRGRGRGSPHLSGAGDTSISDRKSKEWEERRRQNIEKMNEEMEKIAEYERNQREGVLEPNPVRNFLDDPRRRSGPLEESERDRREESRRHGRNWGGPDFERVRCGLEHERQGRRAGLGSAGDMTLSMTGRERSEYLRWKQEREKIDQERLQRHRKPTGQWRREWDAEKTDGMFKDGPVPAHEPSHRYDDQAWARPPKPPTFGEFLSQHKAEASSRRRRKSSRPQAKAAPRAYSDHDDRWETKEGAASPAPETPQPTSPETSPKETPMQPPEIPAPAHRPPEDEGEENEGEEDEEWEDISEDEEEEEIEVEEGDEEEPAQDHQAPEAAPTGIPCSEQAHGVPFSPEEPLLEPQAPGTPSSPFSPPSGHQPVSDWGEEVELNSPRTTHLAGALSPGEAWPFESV
UniProt O43324, sequence (O43324 whole entry): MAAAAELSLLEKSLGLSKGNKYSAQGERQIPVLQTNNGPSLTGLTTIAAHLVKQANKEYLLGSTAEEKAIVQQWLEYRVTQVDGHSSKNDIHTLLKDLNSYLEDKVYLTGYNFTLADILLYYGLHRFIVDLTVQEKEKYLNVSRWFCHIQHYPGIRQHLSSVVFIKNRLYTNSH
UniProt Q9Y5R8, sequence (Q9Y5R8 whole entry): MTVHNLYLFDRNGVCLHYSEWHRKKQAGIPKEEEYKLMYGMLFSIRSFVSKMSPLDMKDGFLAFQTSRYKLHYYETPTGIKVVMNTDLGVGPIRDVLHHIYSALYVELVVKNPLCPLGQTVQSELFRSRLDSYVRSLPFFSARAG
UniProt Q9Y5V0, sequence (Q9Y5V0 whole entry): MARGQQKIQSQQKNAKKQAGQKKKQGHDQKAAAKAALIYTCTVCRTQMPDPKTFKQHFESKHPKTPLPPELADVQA

Target	thermal stability z-score (lipoamide; [1])	thermal stability z-score (lipoamide; arsenate co-treatment: none)	thermal stability z-score (potassium arsenate)
FH (UniProt P07954)	0.0704	0.0826	-1.66
PSMD8 (UniProt P48556)	0.814	0.532	-0.197
DCBLD2 (UniProt Q96PD2)	0.0564	0.109	-0.505
TSPO	-0.334	0.17	0.892
SLTM (UniProt Q9NWH9)	0.712	-0.493	-0.561
TOMM34 (UniProt Q15785)	0.52	0.356	-0.0204
PARP12 (UniProt Q9H0J9)	0.0419	-0.00139	-0.282
C18ORF21 (UniProt Q32NC0)	-0.42	-0.189	-2.28
OPA3 (UniProt Q9H6K4)	1.42	0.732	0.247
CAMK2D (UniProt Q13557)	0.111	0.215	-0.0188
TRAPPC1 (UniProt Q9Y5R8)	0.425	0.512	0.484
HIBCH (UniProt Q6NVY1)	0.0376	-0.171	-0.476
BICD2 (UniProt Q8TD16)	0.184	0.121	0.755
STXBP5 (UniProt Q5T5C0)	0.208	0.496	1.77
PI4K2A (UniProt Q9BTU6)	0.0172	-0.189	-0.0745
CDC20 (UniProt Q12834)	-0.124	-0.245	-1.51
MUT (UniProt P22033)	-0.252	-0.48	-1.02
GNB1L (UniProt Q9BYB4)	0.757	-0.25	-0.589
RAB33B (UniProt Q9H082)	0.43	0.463	0.955
MINK1 (UniProt Q8N4C8)	-0.526	0.0558	-0.0337
DOCK7 (UniProt Q96N67)	-0.23	0.0599	0.962
EPN1 (UniProt Q9Y6I3)	0.241	0.408	0.491
TTC39C (UniProt Q8N584)	0.0518	0.22	0.0855
MGRN1 (UniProt O60291)	-0.792	-0.153	-0.181

Target	thermal stability z-score (lipoamide; [1])	thermal stability z-score (lipoamide; arsenate co-treatment: none)	thermal stability z-score (potassium arsenate)
VPS33A (UniProt Q96AX1)	-0.0394	-0.0312	-0.027
DTYMK (UniProt P23919)	-0.383	0.537	-1.22
SLC12A2 (UniProt P55011)	-0.435	-0.195	-0.72
BCKDK (UniProt O14874)	0.0555	-0.559	0.935
PIGA (UniProt P37287)	0.843	0.283	0.147
PELP1 (UniProt Q8IZL8)	1.14	0.206	0.449
MRPL33 (UniProt O75394)	-0.539	-0.723	-0.812
EEF1E1 (UniProt O43324)	0.552	0.194	0.997
STK3 (UniProt Q13188)	-0.139	-0.0255	0.098
RPUSD3 (UniProt Q6P087)	0.12	0.0857	0.085
IFIT3 (UniProt O14879)	0.00563	-0.0242	-0.0781
NSRP1 (UniProt Q9H0G5)	0.844	0.0777	1.07
TACC2 (UniProt O95359)	0.243	0.134	0.409
DPP3 (UniProt Q9NY33)	0.77	0.569	-0.00156
ZNF706 (UniProt Q9Y5V0)	1.04	0.371	0.0846
SH3PXD2B (UniProt A1X283)	-0.428	-0.272	-0.433
DCXR (UniProt Q7Z4W1)	0.346	-0.203	0.528
TSC22D1 (UniProt Q15714)	0.404	0.657	0.629
CCDC9 (UniProt Q9Y3X0)	1.57	1.4	-0.162
TERF2IP (UniProt Q9NYB0)	-0.302	0.33	-0.131
NHP2 (UniProt Q9NX24)	-0.434	-0.739	-0.721
POLR2B (UniProt P30876)	0.77	0.769	0.205
UCK1 (UniProt Q9HA47)	-0.206	-0.165	0.121
NUP62 (UniProt P37198)	-0.129	-0.358	0.329

Target	thermal stability z-score (lipoamide; [1])	thermal stability z-score (lipoamide; arsenate co-treatment: none)	thermal stability z-score (potassium arsenate)
NBAS (UniProt A2RRP1)	0.00568	0.0731	-0.0529
CCDC22 (UniProt O60826)	-0.152	-0.59	0.0749
HIRIP3 (UniProt Q9BW71)	-0.148	0.462	0.468
NDUFAF2 (UniProt Q8N183)	0.429	0.317	0.094
CNN2 (UniProt Q99439)	0.281	0.653	0.356
PFAS (UniProt O15067)	-0.279	0.208	-1.25
ANAPC5 (UniProt Q9UJX4)	0.0562	-0.0827	-0.0639
RPS26 (UniProt P62854)	0.0208	0.263	-0.743
EEA1 (UniProt Q15075)	0.149	0.231	-0.325
AP2A1 (UniProt O95782)	-0.0653	0.3	1.19
SRSF7 (UniProt Q16629)	1.94	0.776	0.182
OTULIN (UniProt Q96BN8)	-0.269	-0.186	-0.452
CHEK2 (UniProt O96017)	-0.0379	-0.222	-0.161
CYP1B1 (UniProt Q16678)	0.0413	0.0132	-0.0983
NEDD4 (UniProt P46934)	0.296	0.196	-0.128
XRN1 (UniProt Q8IZH2)	-0.0709	-0.0695	-0.357
RPS6KA4 (UniProt O75676)	-0.327	-0.0905	0.0157
CLINT1 (UniProt Q14677)	0.199	0.142	1.08
BRIX1 (UniProt Q8TDN6)	0.442	-0.0247	1.3
PYGL (UniProt P06737)	0.968	0.345	-0.513
HEBP2 (UniProt Q9Y5Z4)	0.891	0.694	0.0122
ADI1 (UniProt Q9BV57)	0.768	0.913	-0.317
GFER (UniProt P55789)	0.239	0.231	0.816

— the supplement of paper PMC12463676, “Small-molecule dissolution of stress granules by redox modulation benefits ALS models” (Nature Chemical Biology, 2025)
